Data set [1] in a line: Solubility in DMSO (stock solutions). Format: physicochemical. Particulars: in comparison to the other compounds / earlier aliquot. As to the method:
Therefore, a 25 mM stock solutions for all the compounds except for C3 and C4 were prepared. The stock solutions for C3 and C4 were prepared at 5 mM and 7.5 mM, respectively. C1 is the parent compound—cromolyn disodium.

The test system of data set [2] is naïve BV2 microglial cells. Description: Aβ42 uptake ELISA, 3 h cromolyn derivative treatment, naïve BV2. Format: cell-based. Particulars: 3 hours + 2 hours. As to the method: (§1) To investigate the effect of cromolyn derivatives on Aβ42 uptake in microglia, naïve BV2 or BV2-CD33^WT cells were plated in proliferating media. On the following day, cells were treated with DMSO (control) or the compounds at different concentrations in proliferating media for 3 hours. […] Afterwards, cells were washed with PBS and treated with DMSO or compounds in the presence of the untagged Aβ42 peptide (400 nM) in DMEM media for 2 hours. Compound toxicity was assessed in the media collected at the end of the treatment with CytoTox-ONE™ lactate dehydrogenase (LDH) assay. The remaining cells in the plate were washed with cold PBS and lysed with RIPA buffer supplemented with protease and phosphatase inhibitors. Protein concentrations in the lysate supernatants were determined using the Pierce™ BCA protein assay kit and 2-3 μg/well of total protein from each lysate was analyzed for Aβ42 uptake using the Aβ42 ELISA kit from Wako. Toxic compound concentrations were excluded from further studies.
To test whether cromolyn derivatives modulate Aβ42 uptake, naïve BV2 microglial cells were treated with DMSO (control) or cromolyn derivative compounds at different concentrations for 3 hours. Afterwards, the cells were washed and treated with DMSO or compounds in the presence of untagged Aβ42 peptide for 2 hours. At the end of the treatment, the cell lysates were collected. […]
(ELISA stands for enzyme-linked immunosorbent assay.)

A further data set concerns BV2-CD33^WT cells. Kind of data set: Aβ42 uptake ELISA, 3 h cromolyn derivative treatment, BV2-CD33^WT. Format: cell-based. Here is the method:
as §1
Further, whether cromolyn derivatives impact Aβ42 uptake and clearance in BV2-CD33^WT cells was determined by two independent sets of experiments. BV2-CD33^WT cells were treated with DMSO (control) or cromolyn derivatives at different concentrations ranging between 5 and 150 μM.
The compound C2 was tested with other cromolyn derivatives in the second set of experiments.

Data set [3] has as its system naïve BV2 microglial cells. Kind of data set: CytoTox-ONE lactate dehydrogenase (LDH) toxicity assay. Format: cell-based. Particulars: 3 hours + 2 hours with Aβ42. Here is the method:
On the following day, cells were treated with DMSO (control) or the compounds at different concentrations in proliferating media for 3 hours. […] Afterwards, cells were washed with PBS and treated with DMSO or compounds in the presence of the untagged Aβ42 peptide (400 nM) in DMEM media for 2 hours. Compound toxicity was assessed in the media collected at the end of the treatment with CytoTox-ONETM lactate dehydrogenase (LDH) assay. The remaining cells in the plate were washed with cold PBS and lysed with RIPA buffer supplemented with protease and phosphatase inhibitors. […] Toxic compound concentrations were excluded from further studies. To investigate whether cromolyn derivatives induce cytotoxicity at higher doses, naïve BV2 microglial cells were incubated with DMSO (vehicle) or cromolyn derivatives at different concentrations for 3 hours. The cells were then washed and incubated with DMSO or compounds and soluble untagged Aβ42 for additional 2 hours. Afterwards, the cell media was collected and measured LDH released by the damaged cells to identify the compounds that induce cytolysis.

The next data set relates to BV2 microglial cells. Kind of data set: Aβ42 uptake in BV2 microglial cell cultures, cromolyn and/or ibuprofen (ELISA). Format: cell-based. Particulars: 10 μM, 100 μM, 1 mM; 16 hours, then 3 hours with soluble Aβ42. As to the method: BV2 microglial cell cultures were treated with cromolyn and/or ibuprofen (10 μM, 100 μM, 1 mM) for 16 hours. Afterwards, cells were incubated with soluble Aβ42 and the compounds for 3 hours. After incubation, cells were collected for ELISA analysis. […] Results were derived from three independent experiments; **p<0.01, ***p<0.001, one-way ANOVA, Tukey's test). Data are represented as mean±SEM.

Molecules are shown by their SMILES. Entries after “also recorded” stand apart in the source; their conditions may differ.

As for `O=C(O)c1cc(=O)c2c(OCC(O)COc3cccc4oc(C(=O)O)cc(=O)c34)cccc2o1` [C1, Cromolyn Disodium, reference compound], in data set [1], the “solubility in DMSO” value was “lower solubility in DMSO”.

`O=c1cc(CO)oc2cccc(OCC(F)COc3cccc4oc(CO)cc(=O)c34)c12` [C6]: the Aβ42 uptake result in data set [2] (different concentrations) was “robust inhibition of Aβ42 uptake”; in the data set with BV2-CD33^WT cells (different concentrations, first set of experiments, vs DMSO), “dose-dependent effect in mediating inhibition of Aβ42 uptake”.

Consider `CCOC(=O)c1cc(=O)c2c(OCC(O)COc3cccc4oc(C(=O)OCC)cc(=O)c34)cccc2o1` [C3], for which the “solubility in DMSO” value in data set [1] was “lower solubility in DMSO”.

Regarding `CC(C)(C)C(=O)OCOC(=O)c1cc(=O)c2c(OCC(O)COc3cccc4oc(C(=O)OCOC(=O)C(C)(C)C)cc(=O)c34)cccc2o1` [C8], the “toxicity (LDH released)” value in data set [3] (100 and 150 μM, vs DMSO) is recorded as “showing toxicity; also recorded: increased toxicity”. Moreover, in data set [3], the “concentration at which toxicity is displayed in LDH assay” value is no less than 100 µM.

Take `CC(C)Cc1ccc(C(C)C(=O)O)cc1` (stereo not shown) [ibuprofen]: the “microglial Aβ42 uptake” value in the data set on BV2 microglial cells is listed as “not ibuprofen promotes microglial Aβ42 uptake”.

A word on the IC50: it is the concentration that gives 50% inhibition. A high value points to weaker potency in that assay. With `CCOC(=O)c1cc(=O)c2c(OCC(F)COc3cccc4oc(C(=O)OCC)cc(=O)c34)cccc2o1` [C4], the Aβ42 uptake entry in data set [2] (75 μM, vs vehicle) is “increased uptake of Aβ42 peptide; also recorded: significantly increased Aβ42 uptake levels”; with BV2-CD33^WT cells (50 μM, first set of experiments), “dose-dependent effect”; in the data set with BV2-CD33^WT cells (75 μM, second set of experiments), “most effective in increasing the Aβ42 uptake”; with BV2-CD33^WT cells (50 and 75 μM, second set of experiments, vs DMSO), “effectively induced Aβ42 uptake”; with BV2-CD33^WT cells (lower concentrations, second set of experiments, vs DMSO) it was “dose-dependent effect at lower concentrations”. Moreover, the “Aβ42 uptake in comparison to DMSO” value in the data set on BV2-CD33^WT cells (75 μM, first set of experiments) is recorded as “two-fold increase; also recorded: increased uptake of Aβ42”. In addition, inhibition with BV2-CD33^WT cells (GraphPad Prism 7, first set of experiments) was half-maximal at 54.7 µM (IC50). For the same compound, the “CD33-mediated inhibition of Aβ uptake and clearance” value in the data set with BV2-CD33^WT cells (both sets of experiments) is “reversed the CD33-mediated inhibition of Aβ uptake and clearance”. Further, the “solubility in DMSO” value in data set [1] is reported as “lower solubility in DMSO”.

These data come from patent US11679095B2, “Macrophages/microglia in neuro-inflammation associated with neurodegenerative diseases” (The General Hospital Corporation, priority 2016, dated 2023).
